Results taken from paper PMC5168863, “Synthesis and functionalization of protease-activated nanoparticles with tissue plasminogen activator peptides as targeting moiety and diagnostic tool for pancreatic cancer” (Journal of Nanobiotechnology, 2016).
pKd: −log10 of the molar value. Residues, ends and D or L forms follow the SMILES beside them. *: point of attachment. 5FAM = O=C1OC2(c3ccc(O)cc3Oc3cc(O)ccc32)c2ccc(C(=O)*)cc21

Experiments:
Gal-3 = Gal-3 (Homo sapiens, UniProt P17931); test: Microscale thermophoresis (MST) binding of t-PA peptides to galectin-3; conditions: for pKd: MST, human galectin; for Fold diff.: versus rh t-PA protein
Method: (§1) To investigate the binding efficiency of the short t-PA-ligands [10 to 29-AA-long peptides fluorescein or rhodamine-labelled] to galectin-1, we applied the microscale thermophoresis (MST) technology which allows quantitative analysis of protein interactions in solutions. By using MST, individual affinity constants between the different t-PA peptides and galectins (Gal-1, -3, -4) previously characterized to be over-expressed in PDAC were determined and compared to the recombinant human t-PA protein (rh t-PA) as presented in Table 2.
(§2) In order to investigate the binding properties of the modified t-PA-peptides [10-29 AA-long fluorescence-labeled peptides] as ligands to galectins, the microscale thermophoresis (MST) (Monolith NT.115 MST instrument, NanoTemper Technologies GmbH, Munich Germany) technology was employed. MST allows a quantitative analysis of protein interactions in solution and is based on the directed motion of molecules in temperature gradients generated locally by an infrared laser, whereas the molecular mobility in the temperature gradient is analyzed via fluorescence. MST is highly sensitive to all types of binding-induced changes of molecular properties like protein size, charge, hydration shell or conformation. The binding modes such as dimerization, cooperativity, and competition are quantifiable and adaptable to diverse requirements of different biomolecules. Therefore, MST turned out as an ideal method for the interaction studies of t-PA and t-PA-derived peptides with galectins.

Gal-4 = target: T1, Gal-4 (Homo sapiens, UniProt P56470); test: Microscale thermophoresis (MST) binding of t-PA peptides to galectin-4; conditions: for pKd: MST, human galectin; for Fold diff.: versus rh t-PA protein
T1 sequence (P56470 1-323): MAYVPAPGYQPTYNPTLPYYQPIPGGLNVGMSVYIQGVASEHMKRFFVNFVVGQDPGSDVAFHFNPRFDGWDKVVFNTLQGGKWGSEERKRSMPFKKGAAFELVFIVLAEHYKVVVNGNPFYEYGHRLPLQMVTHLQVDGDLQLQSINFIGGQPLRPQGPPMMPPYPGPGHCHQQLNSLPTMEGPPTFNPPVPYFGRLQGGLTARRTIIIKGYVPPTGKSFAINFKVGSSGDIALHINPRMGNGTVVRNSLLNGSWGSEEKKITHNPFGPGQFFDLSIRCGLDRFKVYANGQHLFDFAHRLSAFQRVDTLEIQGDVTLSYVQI
Method: as §1, §2

Gal-1 = Gal-1 (Homo sapiens, UniProt P09382); test: Microscale thermophoresis (MST) binding of t-PA peptides to galectin-1; conditions: for pKd: MST, human galectin; for Fold diff.: versus rh t-PA protein
Method: as §1, §2

Su.86.86 = test: Flow cytometry, binding of peptide/NPs to Su.86.86 cells; assay type: cell-based, human
Method: (§3) With the first flow cytometry experiments we analyzed the nanoparticle-core (Core CAN-maghemite (Ce-Fe2O3) and the t-PA-peptide1-lactose (t-PApep1lac) linked to the core. This was to determine whether the fluorescein-labelled t-PA-peptides, covalently linked to NPs, bind to Panc-1 and Su86.86 cells and if the cells are able to internalize the NPs. In a parallel set of experiments the binding of the t-PA-peptide alone (without linkage to NPs) to the pancreatic cancer cells was assessed. For the experimental set-up a concentration of t-PA peptide of 1.25 µM was applied and the cells were exposed to the NPs with and without peptides for different incubation periods of 2, 6, 12 and 24 h.
(§4) Flow cytometry (fluorescent-activated cell sorting/FACS) analysis was used to determine the binding of fluorescein-labeled t-PA-pep1Lac and t-PApep1-vectorized nanoparticles (CAN-Mag@PNPs-tPApep1Lac and CAN-Mag@PNPs-PEG-REGAcp-PEG/tPA-pep1Lac) on the surfaces of Panc-1 and SU.86.86 cells. Additional FACS analyses were performed to monitor concentration and time-dependent binding efficiency and changes caused by addition of competitors (galactose, lactose) or in the presence of active MMP-9, which cleaves the REGAcp sequence. Deshielding of CAN-Mag@PNPs-PEG-REGAcp-PEG/tPA-pep1Lac was carried out by pre-activated MMP-9 (20 µM proMMP-9 and 200 nM of catalytic domain cdMMP-3 in 100 mM Tris, 100 mM NaCl, 10 mM CaCl2, pH 7.4 for 2 h at 37 °C). The active MMP-9 (50 µl, 10 µM) was incubated in the presence of 450 µl NPs and subsequently added to cells. Nanoparticle-exposed cell monolayers (of 2 × 10^5 cells/2 ml medium in 6 well plates), with or without treatment, were harvested 2, 12, 24 h post-exposure using 1 mM EDTA–phosphate-buffered saline (PBS) detachment buffer, (Miltenyi GmbH, Bergisch Gladbach, Germany), washed 3 times in PBS, incubated for 45 min on ice and subsequently subjected to analysis in a BD™ LSR II flow cytometer and Software Program: BD FACSDiva 7.0 (Becton–Dickinson,)

Panc-1 = test: Flow cytometry, binding of peptide/NPs to Panc-1 cells; assay type: cell-based, human
Method: as §3, §4

Sequence of Gal-3 (P17931 whole entry): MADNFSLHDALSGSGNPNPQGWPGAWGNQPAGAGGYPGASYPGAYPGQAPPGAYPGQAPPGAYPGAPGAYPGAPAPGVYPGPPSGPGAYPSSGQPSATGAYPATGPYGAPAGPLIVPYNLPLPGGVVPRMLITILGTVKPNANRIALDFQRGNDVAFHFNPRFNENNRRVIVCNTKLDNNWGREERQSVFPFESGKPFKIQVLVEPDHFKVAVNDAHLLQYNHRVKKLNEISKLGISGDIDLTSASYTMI
Sequence of Gal-1 (P09382 whole entry): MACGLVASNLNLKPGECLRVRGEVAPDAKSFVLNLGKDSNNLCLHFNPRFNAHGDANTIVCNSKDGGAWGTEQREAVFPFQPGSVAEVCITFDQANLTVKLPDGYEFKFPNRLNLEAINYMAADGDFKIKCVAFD

## CC(C)C[C@H](NC(=O)[C@H](C)NC(=O)[C@H](CO)NC(=O)[C@H](CO)NC(=O)[C@H](CC(N)=O)NC(=O)[C@H](Cc1c[nH]c2ccccc12)NC(=O)[C@H](CC(N)=O)NC(=O)[C@@H](NC(=O)[C@H](CS)NC(=O)[C@H](CCC(=O)O)NC(=O)[C@H](C)NC(=O)CNC(=O)[C@H](CO)NC(=O)[C@H](CCC(=O)O)NC(=O)[C@H](C)NC(=O)[C@@H](NC(=O)[C@H](CO)NC(=O)[C@H](Cc1c[nH]c2ccccc12)NC(=O)[C@@H](NC(=O)CNC(=O)c1ccc2c(c1)C(=O)OC21c2ccc(O)cc2Oc2cc(O)ccc21)[C@@H](C)O)[C@@H](C)O)[C@@H](C)O)C(=O)N[C@@H](C)C(=O)N[C@@H](CCC(N)=O)C(=O)N[C@@H](CCCCN)C(=O)N1CCC[C@H]1C(=O)N[C@@H](Cc1ccc(O)cc1)C(=O)N[C@@H](CO)C(=O)NCC(=O)N[C@@H](CCCNC(=N)N)C(=O)O [t-PA-pep-1] (5FAM-GTWSTAESGAECTNWNSSALAQKPYSGR-OH)
Gal-3; N-Fluo. labelled ligand
  pKd: 3.57
  Fold diff.: −35.4
Gal-4; N-Fluo. labelled ligand
  pKd: 4.47
  Fold diff.: 1.5
Gal-1; N-Fluo. labelled ligand
  pKd: 3.85
  Fold diff.: −28.7

## CC(C)C[C@H](NC(=O)[C@H](C)NC(=O)[C@H](CO)NC(=O)[C@H](CO)NC(=O)[C@H](CO[C@@H]1O[C@H](CO)[C@@H](O[C@@H]2O[C@H](CO)[C@H](O)[C@H](O)[C@H]2O)[C@H](O)[C@H]1O)NC(=O)[C@H](Cc1c[nH]c2ccccc12)NC(=O)[C@H](CC(N)=O)NC(=O)[C@@H](NC(=O)[C@H](CS)NC(=O)[C@H](CCC(=O)O)NC(=O)[C@H](C)NC(=O)CNC(=O)[C@H](CO)NC(=O)[C@H](CCC(=O)O)NC(=O)[C@H](C)NC(=O)[C@@H](NC(=O)[C@H](CO)NC(=O)[C@H](Cc1c[nH]c2ccccc12)NC(=O)[C@@H](NC(=O)CN)[C@@H](C)O)[C@@H](C)O)[C@@H](C)O)C(=O)N[C@@H](C)C(=O)N[C@@H](CCC(N)=O)C(=O)N[C@@H](CCCCN)C(=O)N1CCC[C@H]1C(=O)N[C@@H](Cc1ccc(O)cc1)C(=O)N[C@@H](CO)C(=O)NCC(=O)N[C@@H](CCCNC(=N)N)C(=O)N[C@@H](CCCCNC(=O)c1ccc2c(c1)C(=O)OC21c2ccc(O)cc2Oc2cc(O)ccc21)C(=O)O [t-PA-pep-1lac]
Gal-3; C-Fluo. labelled ligand
  pKd: 6.14
  Fold diff.: 10.4
Gal-4; C-Fluo. labelled ligand
  pKd: 4.90
  Fold diff.: 4.03
Su.86.86; Su.86.86, 2 h incubation
  Percentage of cells labeled with nanoparticles: 25.7%
Su.86.86; Su.86.86, 12 h incubation
  Percentage of cells labeled with nanoparticles: 45.8%
Su.86.86; Su.86.86, 24 h incubation
  Percentage of cells labeled with nanoparticles: 36.6%
Gal-1; C-Fluo. labelled ligand
  pKd: 6.70
  Fold diff.: 25
Gal-1; N-Fluo. labelled ligand
  pKd: 6.54
  Fold diff.: 17
Panc-1; Panc-1, 2 h incubation
  Percentage of cells labeled with nanoparticles: 2.6%
Panc-1; Panc-1, 12 h incubation
  Percentage of cells labeled with nanoparticles: 87.6%
Panc-1; Panc-1, 24 h incubation
  Percentage of cells labeled with nanoparticles: 86.3%

## rh t-PA protein: recombinant human t-PA protein [reference compound]
Gal-3; N-Fluo. labelled ligand
  pKd: 5.11
  Fold diff.: 1
Gal-4; N-Fluo. labelled ligand
  pKd: 4.29
  Fold diff.: 1
Gal-1; N-Fluo. labelled ligand
  pKd: 5.31
  Fold diff.: 1
